# Measured values: patent US20150175585A1, “FUSED QUINONIC COMPOUNDS” (CENTRO ATLANTICO DEL MEDICAMENTO S.A (CEAMED, S.A.), priority 2012, published 2015)
# pIC50: −log10 of the molar value. Like-named read-outs stand apart in the source and are kept apart here.
# Tests used:
# [1] = tested on: STAT5 transcription (pSPI-GLE1-luc) in HEK-GHR cells; experiment: HEK-GHR STAT5 transcription assay (luciferase reporter, rhGH stimulated); format: cell-based, human; conditions: compound 45 minutes before 50 nM rhGH, six hours, read-out: Activity (IC50, reduction of luciferase activity)
# Text: Plasmids: The full-length GHR was subcloned into pcDNA1/ampicillin (Invitrogen) as described previously (Ross R J, Esposito N, Shen X Y, et al., Mol Endocrinol 1997, 11:265-73). The pSPI-GLE1 (serine protease inhibitor 2.1 GAS-like element 1)-luc reporter construct was generated by subcloning the Stat5-binding element from serine protease inhibitor gene together with a minimal thymidine kinase promoter into the pGL2 plasmid (Promega), which contains the firefly luciferase cDNA (Wood T J, Sliva D, Lobie P E, et al. J Biol Chem 1995, 270:9448-53).
# Cell culture: HEK-GHR cell line was maintained in Dulbecco's Modified Eagle Medium (DMEM)/F12 supplemented with 10% fetal bovine serum (FBS) and 50 U/ml penicillin/50 U/ml streptomycin. The cells were maintained in a humidified incubator with 5% CO2 at 37° C. Cell culture reagents were obtained from PAA laboratories. The HEK-GHR cell line is a stable clone generated and kindly donated by Prof. Richard Ross (Clinical Sciences, Northern General Hospital, Sheffield, UK). Briefly, HEK-GHR cell line was generated in HEK 293 cells (human kidney embryonal cell line) by transfection with the calcium phosphate procedure of the GHR plasmid with pcDNA3/Neo (Invitrogen). Selection was made using G418 (400 ug/ml, Sigma) (Maamra M, Finidori J, Von Laue S, et al., J Biol Chem 1999, 274(21):14791-8).
# Luciferase reporter assay: Transcription assays were performed in HEK-GHR. The HEK-GHR cells were co-transfected with Stat5 luciferase (pSPI-GLE1-luc) reporter vector together with a plasmid constitutively expressing beta-galactosidase by using Metafectene Pro as described by the manufacturer (Biontex Laboratories GmbH, Munich, Germany). Following transfection, HEK-GHR cells were serum-starved for 20 h. Cells were then treated with vehicle (0.1% DMSO) or the indicated compound for 45 minutes prior to the addition of 50 nM recombinant human Growth Hormone (rhGH) (Norditropin, Novo Nordisk) to the medium. Six hours following rhGH addition, cells were harvested with Passive Lysis Buffer (Promega), and levels of luciferase were measured using Luciferase Assay System as described by the manufacturer (Promega). The Galacto-Light Plus System (Applied Biosystems) was used to measure beta-galactosidase activity.
# Statistical analysis. The concentration of drug that provokes 50% reduction of luciferase activity (IC50) was determined by using non-linear regression analysis and data were fitted to a log concentration vs normalized response curve in GraphPad software v5 (San Diego, Calif.).
# [2] = tested on: JAK2; experiment: JAK2 phosphorylation western blot assay; format: cell-based, human; conditions: 10 microM, HEL or K562 cells (table does not say which)
# Procedure: (§1) The Human Erythroleukemia cell line HEL and the human Chronic Myeloid Leukemia cell line K562 were cultured in RPM I 1640 medium containing 10% fetal bovine serum (FBS) and 50 U/ml penicillin/50 U/ml streptomycin at 37° C. in a 5% CO2 humidified atmosphere to a density of 300.000 viable cells/mL in presence of WP1066 (positive control of phosphorylation inhibition) (Verstovsek et al., 2008) or CM-363 at concentrations of 1, 5 and 10 μM. Cell culture reagents were all obtained from BioWhittaker® (Lonza, Verniers, Belgium). Cell growth and viability was determined by propidium iodide (fluorescent dye) exclusion method using the Accuchip 4× Counting Kit and the ADAM automatic cell counter (Digital-Bio, NanoEntek, Ic., Washington St, Mass., USA).As a control of unspecific phosphorylation, some cells in each experiment were exposed to vehicle (negative control of phosphorylation inhibition) (0.1% DMSO).
# (§2) For total protein extraction, cells were scraped with RIPA 1× lysis buffer (25 mM Tris-HCl pH 7.6, 150 mM NaCl, 1% NP-40, 1% sodium deoxycholate, 0.1% SDS, no. 89900, Thermo Scientific, Rockford, Ill., USA) supplemented with 1× protease and 1× phosphatase inhibitor cocktails (100× Halt™ Protease Inhibitor Cocktail, no. 87786 and 100× Halt Phosphatase Inhibitor Cocktail, no. 78420, both from Thermo Scientific, Rockford, Ill., USA). An aliquot of each extract was preserved for protein quantification by bicinchoninic acid assay (Pierce® BCA Protein Assay Kit, no. 23225, Thermo Scientific, Rockford, Ill., USA).
# (§3) Proteins were solubilized in sample buffer containing 0.0625 M Tris-HCl, pH 6.8, 2.3% (wt/vol) SDS, 10% (vol/vol) glycerol, 5% (vol/vol) f3-mercaptoethanol, and 0.001% (wt/vol) bromophenol blue and boiled at 95° C. for 5 min. Equal amounts (50 μg) of each sample were electrophoresed on 8-10% sodium dodecyl sulfate-polyacrylamide gel electrophoresis (SDS-PAGE) and transferred to nitrocellulose membranes (iBlot® Gel Transfer Stacks, Nitrocellulose, no. IB4010-02, Invitrogen, Barcelona, Spain) as described previously (Fernandez, L, et al., Endocrinology, 13, 1815-1824, 1998; B. Guerra et al., J. Neurochem, 91, 99-109, 2004; B. Guerra et al., J. Appl. Physiol., 102, 1786-1792, 2007; B. Guerra et al., J. Appl. Physiol., 111, 715-725, 2011). The nitrocellulose membranes were then removed from the iBlot® Dry GelTransfer Device (no. IB1001EU, Invitrogen, Barcelona, Spain) and placed in a Ponceau S staining solution (0.5% Ponceau S and 1% glacial acetic acid in water) to verify equal loading of protein in the control and treated samples. After the membranes were stained for 5 min, they were rinsed for 2 min and examined. Equal loading of protein was verified, and the membranes were rinsed for an additional 10 min and immunoscreened. Membranes were blocked with 5% blotting grade blocker nonfat dry milk in Tris Buffered Saline with 0.05% Tween 20 (TBST; blotto-blocking buffer) for at least […]) at room temperature. They were washed thrice in TBS with 0.1% Tween 20 (TBST-0.1). Next, the membranes were incubated over night at 4° C. with the appropriate anti-phospho-antibodies (described below) all diluted (1:1000) in 1% bovine serum albumin (BSA)-1% blotto in TBST (BSA-blotto blocking buffer). […] Membranes were stripped of bound antibodies by incubation in stripping buffer (Restore™ Western Blot Stripping Buffer, no. 21059, Thermo Scientific, Rockford, Ill., USA) at room temperature for 30 min with agitation. Membranes were washed for 3×10 min in TBST-0.1, blocked with blotto-blocking buffer for at least 1 h and re-probed with the corresponding anti-total kinase antibodies (described below) all diluted (1:1000) in blotto-blocking buffer. […]
# [3] = tested on: STAT5; experiment: STAT5 phosphorylation western blot assay; format: cell-based, human; conditions: 10 microM, HEL or K562 cells (table does not say which)
# Procedure: as §1, §2, §3
# [4] = tested on: HEL cells; experiment: HEL-based MTT cell viability assay; design: species or system human; conditions: 48 h, read-out: Activity (IC50, reduction of cell viability)
# Procedure: Cell viability was assayed by measuring the mitochondrial reduction of the tetrazolium salt 3-(4,5-methyltiazol-2yl)-2,5diphenyl-tetrazolium bromide] (MTT) (Applichen; A2231,0010) (Mosmann T. J Immunol Methods. 1983 16; 65(1-2):55-63; Chuan Y-C et al 2010. Oncogene. 29 (10), 1531-1542. Cells were seeded in 96-well plates in medium supplemented with 10% FBS (Lonza Cat. No: 14-502F), 2 mM L-Glut (Lonza Cat. No: BE17-605E) and 100 U/ml PEST (Lonza Cat. No: DE17-605E) at a cell density of 5000-20000 cells/well. Cells were seeded at a density according to their exponential growth phase. Vehicle (0.05% DMSO) or drug were added to culture medium at the indicated concentrations (10 to 0.01 microM) during 48 h. Then, MTT (0.3 mg/ml) was added to cells following by incubation for 2-4 h at 37° C. in the dark. The medium was then discarded and the formazan precipitate was solubilized by addition of 20% SDS (Sigma; L-5750) in 0.02N HCl (Panreac; 131020.1611) for 12-16 h. The optical density was measured at 595 nm with the iMark Microplate Reader (BioRad, USA). Data was expressed as percent growth above the level in controls and the results in figures were plotted as means±SEM of each test point from 3 replicates.
# Statistical analysis. The concentration of drug that provokes 50% reduction of cell viability (IC50) was determined by using non-linear regression analysis and data were fitted to a log concentration vs normalized response curve in GraphPad software v5 (San Diego, Calif.).
Structure (SMILES),pIC50 [1],Activity (inhibition of JAK2 phosphorylation) [2],Activity (inhibition of STAT5 phosphorylation) [3],pIC50 [4],pIC50 ([1]; Homo sapiens),pIC50 ([4]; Homo sapiens)
O=C1CCCC2=C1C(c1cccnc1)C1=C(N2)C(=O)c2ccccc2C1=O (stereo not shown) [Compound 17],> 5.30,+++ (+++represents an inhibition at 10 microM > 75%),+ (+represents an inhibition at 10 microM > 50%),> 5.52,,
CC1(C)CC(=O)C2=C(C1)NC1=C(C(=O)c3cn[nH]c3C1=O)C2c1ccccc1 (stereo not shown) [Compound 5],> 5.30,+ (+represents an inhibition at 10 microM > 30%),+ (+represents an inhibition at 10 microM > 50%),> 5.52,,
"CC1(C)CC(=O)C2=C(C1)OC1=C(C(=O)c3ccccc3C1=O)C2c1cccs1 (stereo not shown) [Compound 7, 3,3-dimethyl-12-(thiophen-2-yl)-3,4-dihydro-1H-benzo[b]xanthene-1,6,11(2H,12H)-trione]",,+++ (+++represents an inhibition at 10 microM > 75%),+++ (+++represents an inhibition at 10 microM > 75%),,> 6.00,> 5.00
"CC1(C)CC(=O)C2=C(C1)OC1=C(C(=O)c3ccccc3C1=O)C2c1ccco1 (stereo not shown) [Compound 20, 12-(furan-2-yl)-3,3-dimethyl-3,4-dihydro-1H-benzo[b]xanthene-1,6,11(2H,12H)-trione]",,+++ (+++represents an inhibition at 10 microM > 75%),++ (++represents an inhibition at 10 microM > 50%),,> 6.00,> 6.00
"O=C1CCCC2=C1C(c1ccccn1)C1=C(O2)C(=O)c2ccccc2C1=O (stereo not shown) [Compound 11, 12-(pyridin-2-yl)-3,4-dihydro-1H-benzo[b]xanthene-1,6,11(2H,12H)-trione]",,,+ (+represents an inhibition at 10 microM > 50%),,> 6.00,> 5.00
CC1(C)CC(=O)C2=C(C1)NC1=C(C(=O)c3ncncc3C1=O)C2c1ccccc1 (stereo not shown) [Compound 8],> 5.30,+++ (+++represents an inhibition at 10 microM > 75%),+ (+represents an inhibition at 10 microM > 50%),> 5.52,,
O=C1CCCC2=C1C(c1ccccc1Cl)C1=C(N2)C(=O)c2ccccc2C1=O (stereo not shown) [Compound 22],> 5.30,++ (++represents an inhibition at 10 microM > 50%),+++ (+++represents an inhibition at 10 microM > 75%),> 5.52,,
O=C1CCCC2=C1C(c1ccoc1)C1=C(N2)C(=O)c2ccccc2C1=O (stereo not shown) [Compound 24],> 5.30,+++ (+++represents an inhibition at 10 microM > 75%),+ (+represents an inhibition at 10 microM > 50%),> 5.52,,
"O=C1CCCC2=C1C(c1cccs1)C1=C(N2)C(=O)c2ccccc2C1=O (stereo not shown) [Compound 6, 12-(thiophen-2-yl)-3,4-dihydrobenzo[b]acridine-1,6,11(2H,5H,12H)-trione]",,+ (+represents an inhibition at 10 microM > 30%),++ (++represents an inhibition at 10 microM > 50%),,> 5.30,> 5.52
COc1ccc(C2C3=C(CCCC3=O)OC3=C2C(=O)c2ccccc2C3=O)cc1OC (stereo not shown) [Compound 15],> 5.00,++ (++represents an inhibition at 10 microM > 50%),++ (++represents an inhibition at 10 microM > 50%),> 6.00,,
CC1(C)CC(=O)C2=C(C1)OC1=C(C(=O)c3ccccc3C1=O)C2c1ccoc1 (stereo not shown) [Compound 21],> 6.00,+ (+represents an inhibition at 10 microM > 30%),++ (++represents an inhibition at 10 microM > 50%),> 5.52,,
CC1(C)CC(=O)C2=C(C1)NC1=C(C(=O)c3ccccc3C1=O)C2c1cnc(Cl)nc1 (stereo not shown) [Compound 19],> 5.30,++ (++represents an inhibition at 10 microM > 50%),,> 5.52,,
